Where two headings read alike, the source gives them in different places.

These results are taken from patent publication US10646595B2, “Porphyrin compounds and their use as MRI contrast agents” (THE GOVERNING COUNCIL OF THE UNIVERSITY OF TORONTO, priority 2013, dated 2020).

Data set [1] can be described thus: NMRD profiles, field-dependent T1 relaxivity, field cycling NMR relaxometer 0 to 1 T. Conditions: for T1 relaxivity per Mn(III) or Gd(III), NMRD comparison: fields above ~0.2 T, compared among MnTPPS, MnTCP, (MnTPPS3)2 and Gd-DTPA. The format is physicochemical. How it is done:
T1 relaxivity values were measured per Mn(III) or Gd(III) up to 1 T.

Data set [2] in a line: T1 and T2 relaxivities and phantom images at 3 T on clinical MRI scanner. Format: physicochemical. The following applies: for r1 (T1 relaxivity): clinical MRI scanner, inversion-recovery spin-echo, 25° C. per FIG. 3. How it is done:
(A) A schematic diagram of how the solutions are placed. (B) The corresponding phantom images produced by the 3 T scanner.
Relaxivities of MnPs at 3 T were measured on a clinical MRI scanner (Philips Achieva). Each of the four CAs were prepared in a series of increasing concentrations, 0, 0.05, 0.1, 0.2 and 0.5 mM, and imaged using an inversion-recovery spin-echo pulse sequence with varied inversion times TI and a multi-echo spin-echo sequence with varied echo times TE. […] The r1 values in Table 1 were derived by calculating T1 relaxation times from the inversion-recovery images and then linearly fitting the T1 relaxation rates to obtain the relaxivity r1. T2 relaxivities of the MnPs were also calculated and are listed in […]

The nature of data set [3]: In vivo T1-weighted MRI in rats on 3T clinical scanner after intravenous injection. Conditions: 0.05 mmol Mn/kg i.v. The text has this:
(§1) MnPs MnTCP and (MnTPPS3)2 were administrated in rats and submitted for MRI studies on a 3T clinical scanner (Philips Achieva), with MnTPPS as a reference, and found to be efficient T1 CAs for in vivo applications, MnTCP and (MnTPPS3)2. A relatively low dose, 0.05 mmol Mn/kg (typical dose for clinical Gd-based CAs is ˜0.1 mmol Gd/kg) was chosen based on the in vitro relaxivity values described above.
(§2) The desired rapid clearance of MnTCP via renal filtration was further confirmed by urine sample analysis. The characteristic reddish color of MnPs was clearly visible by eye in the urine samples. The concentrations of MnPs can be accurately quantified by both UV-vis and Mn atomic absorption (Mn AA) spectroscopic analyses. Very high concentrations of MnP were detected in urine 60 minutes (11.7 μM) after injection. […] Moreover, a significant amount of MnTPPS (1.12 μM) could still be detected in urine 24 hours post-injection. […] The exclusion of the renal metabolic pathway for (MnTPPS3)2 was further confirmed by urine sample analysis.

A short description of data set [4]: Urine sample analysis by UV-vis and Mn atomic absorption after injection in rats. Format: in vivo. The following applies: 0.05 mmol Mn/kg i.v.
Source text: as §1, §2

For data set [5] the following is noted: 37° C., cited from earlier work.

`O=S(=O)([O-])c1ccc(C2=C3C=CC4=[N+]3[Mn]35[n]6c2ccc6C(c2ccc(S(=O)(=O)[O-])cc2)=C2C=CC(=[N+]23)C(c2ccc(S(=O)(=O)[O-])cc2)=c2ccc([n]25)=C4c2ccc(-c3ccc(C4=C5C=CC6=[N+]5[Mn]57[n]8c4ccc8C(c4ccc(S(=O)(=O)[O-])cc4)=C4C=CC(=[N+]45)C(c4ccc(S(=O)(=O)[O-])cc4)=c4ccc([n]47)=C6c4ccc(S(=O)(=O)[O-])cc4)cc3)cc2)cc1` (centres unmarked) [(MnTPPS3)2]: the “field of relaxivity peak” value in data set [1] (NMRD profile) is around 1 T. Further, in data set [1], the “T1 relaxivity per Mn(III) or Gd(III), NMRD comparison” value is given as “highest relaxivity per Mn”. The “signal intensity on T1 weighted phantom images” value in data set [2] (25° C., samples at the same concentration) is “highest signal intensity”. Besides, in data set [2], the “r1 (T1 relaxivity)” value is 14.1 mM⁻¹ s⁻¹. In data set [3] (3 T MRI), the “enhancement in the blood vessels and in the heart” value is on record as “relatively long-lasting enhancement”; the liver enhancement result was “significant liver enhancement”. In addition, the bladder enhancement result in data set [3] (over the three days of the experimental period) is given as “no bladder enhancement was detected”. Moreover, in data set [4] (over the 72 hour post-injection period), the “MnP signal in urine by Mn-AA or UV-vis” value was “No MnP signal was found”.
As to `O=C(O)c1c2nc(c(C(=O)O)c3ccc([n-]3)c(C(=O)O)c3nc(c(C(=O)O)c4ccc1[n-]4)C=C3)C=C2.[Cl-].[Mn+3]` [MnTCP, [5,10,15,20-tetrakis(carboxy)porphyrinato]manganese(III) Chloride], the “T1 relaxivity, NMRD comparison” value in data set [1] (at clinical field strengths) is “lower relaxivity than MnTPPS”. Moreover, the “T1 relaxivity per Mn(III) or Gd(III), NMRD comparison” value in data set [1] is reported as “substantially higher than Gd-DTPA”. In data set [2], the “relaxivity compared with Gd-DTPA” value is reported as “significantly higher relaxivity than Gd-DTPA” and the “r1 (T1 relaxivity)” value was found to be 7.90 mM⁻¹ s⁻¹. Moreover, the “time for relocation of majority of kidney enhancement into the bladder” value in data set [3] (3 T MRI) is on record as “within an hour”. Further, the “time to accumulation in the kidney” value in data set [3] (post injection, 3 T MRI) was at most 10 min. In addition, the concentration in urine in data set [4] (60 minutes after injection) turned out to be 11.7 µM. Also, in data set [4] (about 24 h post injection), the “presence in urine sample” value is listed as “Absence”.
Turning to MnTPPS [reference compound], in data set [2], the “r1 (T1 relaxivity)” value is 8.83 mM⁻¹ s⁻¹. Besides, in data set [3] (3 T MRI), the liver enhancement entry is reported as “clear liver enhancement” and the “persistence of kidney T1 enhancement signal” value was “still visible in the image 1 day post-injection”. The compound further had a concentration in urine in data set [4] (60 minutes after injection) of 4.41 µM. Moreover, the concentration in urine in data set [4] (24 hours post-injection) amounted to 1.12 µM. Also, the relaxivity plateau in data set [5] (up to 1 T) was above 10 mM⁻¹ s⁻¹. The “field of relaxivity peak” value in data set [5] is given as 0.2 T.
